Reference: ChEMBL document CHEMBL1201862, “PubChem BioAssay data set” (2004)
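Values below derive from 48-hour exposures of cells grown in 96-well plates, with endpoints linearly interpolated between the two concentrations bracketing the appropriate inhibition level. The concentration for 50% growth inhibition is given as GI50.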 Calls of active or inactive are those of the source. Rule as the data show it: active = GI50 up to about 1.1 µM and inactive = higher.

Experiments:
Experiment in all cases: NCI anticancer screen, dose series, 48 h
[1] = tested on: MDA-MB-435
[2] = tested on: SK-OV-3
[3] = tested on: UO-31
[4] = tested on: KM12
[5] = tested on: Malme-3M
[6] = tested on: SR
[7] = tested on: MOLT-4
[8] = tested on: MDA-MB-231
[9] = tested on: SF-295
[10] = tested on: BT-549
[11] = tested on: OVCAR-8
[12] = tested on: RPMI-8226
[13] = tested on: DU-145
[14] = tested on: NCI-H226
[15] = tested on: A549
[16] = tested on: NCI-H23
[17] = tested on: SF-268
[18] = tested on: LOX IMVI
[19] = tested on: PC-3
[20] = tested on: SNB-19
[21] = tested on: SK-MEL-2
[22] = tested on: OVCAR-5
[23] = tested on: TK-10
[24] = tested on: SW-620
[25] = tested on: Hs-578T
[26] = tested on: ACHN
[27] = tested on: 786-0
[28] = tested on: UACC-257
[29] = tested on: NCI-H522
[30] = tested on: HCT-116
[31] = tested on: CCRF-CEM
[32] = tested on: HCC 2998
[33] = tested on: HL-60
[34] = tested on: SF-539
[35] = tested on: IGROV-1
[36] = tested on: OVCAR-4
[37] = tested on: HOP-62
[38] = tested on: EKVX
[39] = tested on: RXF 393
[40] = tested on: CAKI-1
[41] = tested on: T47D
[42] = tested on: MCF7
[43] = tested on: UACC-62
[44] = tested on: U-251
[45] = tested on: SN12C
[46] = tested on: OVCAR-3
[47] = tested on: COLO 205
[48] = tested on: HOP-92
[49] = tested on: HT-29
[50] = tested on: M14
[51] = tested on: NCI/ADR-RES
[52] = tested on: MDA-N
[53] = tested on: HCT-15
[54] = tested on: SK-MEL-28
[55] = tested on: SK-MEL-5
[56] = tested on: K562
[57] = tested on: SNB-75
[58] = tested on: NCI-H460

In the case of `O=C1NC(N2CCCCC2)=N/C1=C\c1cccs1`, the GI50 [1] is reported as > 100 µM (inactive), the GI50 [2] is reported as > 100 µM (inactive) and the GI50 [3] is reported as > 100 µM (inactive). The GI50 [4] was > 100 µM (inactive), the GI50 [5] was > 100 µM (inactive) and the GI50 [6] was > 100 µM (inactive). The GI50 [7] was > 100 µM (inactive), the GI50 [8] was > 100 µM (inactive) and the GI50 [9] was > 100 µM (inactive). The GI50 [10] was > 100 µM (inactive), the GI50 [11] was > 100 µM (inactive) and the GI50 [12] was > 100 µM (inactive). The GI50 [13] was > 100 µM (inactive), the GI50 [14] was > 100 µM (inactive) and the GI50 [15] was > 100 µM (inactive). The GI50 [16] was > 100 µM (inactive), the GI50 [17] was > 100 µM (inactive) and the GI50 [18] was > 100 µM (inactive). The GI50 [19] was > 100 µM (inactive), the GI50 [20] was > 100 µM (inactive) and the GI50 [21] was > 100 µM (inactive). For the same molecule, the GI50 [22] was > 100 µM (inactive), the GI50 [23] was > 100 µM (inactive) and the GI50 [24] was > 100 µM (inactive). For the same molecule, the GI50 [25] was > 100 µM (inactive), the GI50 [26] was > 100 µM (inactive) and the GI50 [27] was > 100 µM (inactive). For the same molecule, the GI50 [28] was > 100 µM (inactive), the GI50 [29] was > 100 µM (inactive) and the GI50 [30] was > 100 µM (inactive). The GI50 [31] was > 100 µM (inactive), the GI50 [32] was > 100 µM (inactive) and the GI50 [33] was > 100 µM (inactive). The GI50 [34] was > 100 µM (inactive), the GI50 [35] was > 100 µM (inactive) and the GI50 [36] was > 100 µM (inactive). For the same molecule, the GI50 [37] was > 100 µM (inactive), the GI50 [38] was > 100 µM (inactive) and the GI50 [39] was > 100 µM (inactive). The GI50 [40] was > 100 µM (inactive), the GI50 [41] was > 100 µM (inactive) and the GI50 [42] was > 100 µM (inactive). The GI50 [43] was > 100 µM (inactive), the GI50 [44] was > 100 µM (inactive) and the GI50 [45] was > 100 µM (inactive). The GI50 [46] was > 100 µM (inactive), the GI50 [47] was > 100 µM (inactive) and the GI50 [48] was > 100 µM (inactive). The GI50 [49] was > 100 µM (inactive), the GI50 [50] was > 100 µM (inactive) and the GI50 [51] was > 100 µM (inactive). For the same molecule, the GI50 [52] was > 100 µM (inactive), the GI50 [53] was greater than 100 µM and the GI50 [54] was > 100 µM (inactive).

In the case of `CC1Cc2c(cc(N)nc2Br)NC1=O` (configuration not stated), the GI50 [55] is reported as 85.1 µM (inactive), the GI50 [1] is reported as 62.4 µM (inactive) and the GI50 [2] is reported as > 100 µM (inactive). The GI50 [3] was > 100 µM (inactive), the GI50 [4] was > 100 µM (inactive) and the GI50 [5] was > 100 µM (inactive). For the same molecule, the GI50 [6] was 84.1 µM (inactive), the GI50 [7] was 43.1 µM (inactive) and the GI50 [8] was > 100 µM (inactive). The GI50 [9] was > 100 µM (inactive), the GI50 [10] was 92.9 µM (inactive) and the GI50 [11] was > 100 µM (inactive). The GI50 [12] was > 100 µM (inactive), the GI50 [13] was > 100 µM (inactive) and the GI50 [14] was > 100 µM (inactive). The GI50 [15] was 63.7 µM (inactive), the GI50 [16] was > 100 µM (inactive) and the GI50 [17] was > 100 µM (inactive). For the same molecule, the GI50 [18] was > 100 µM (inactive), the GI50 [19] was > 100 µM (inactive) and the GI50 [56] was 63.4 µM (inactive). For the same molecule, the GI50 [20] was > 100 µM (inactive), the GI50 [21] was > 100 µM (inactive) and the GI50 [22] was > 100 µM (inactive). The GI50 [23] was > 100 µM (inactive), the GI50 [24] was > 100 µM (inactive) and the GI50 [25] was > 100 µM (inactive). The GI50 [26] was 64.3 µM (inactive), the GI50 [27] was > 100 µM (inactive) and the GI50 [28] was > 100 µM (inactive). For the same molecule, the GI50 [29] was > 100 µM (inactive), the GI50 [30] was 64.6 µM (inactive) and the GI50 [31] was > 100 µM (inactive). For the same molecule, the GI50 [32] was > 100 µM (inactive), the GI50 [33] was > 10 µM (inactive) and the GI50 [34] was > 100 µM (inactive). For the same molecule, the GI50 [35] was > 100 µM (inactive), the GI50 [36] was > 100 µM (inactive) and the GI50 [37] was > 100 µM (inactive). For the same molecule, the GI50 [38] was 11 µM (inactive), the GI50 [39] was 81.8 µM (inactive) and the GI50 [40] was > 100 µM (inactive). For the same molecule, the GI50 [41] was 42.7 µM (inactive), the GI50 [42] was > 100 µM (inactive) and the GI50 [43] was > 100 µM (inactive). For the same molecule, the GI50 [57] was 74.8 µM (inactive), the GI50 [44] was > 100 µM (inactive) and the GI50 [58] was > 100 µM (inactive). The GI50 [45] was > 100 µM (inactive), the GI50 [46] was > 100 µM (inactive) and the GI50 [47] was > 100 µM (inactive). The GI50 [48] was 45.9 µM (inactive), the GI50 [49] was > 100 µM (inactive) and the GI50 [50] was > 100 µM (inactive). For the same molecule, the GI50 [51] was > 100 µM (inactive), the GI50 [52] was 46.1 µM (inactive) and the GI50 [53] was greater than 100 µM. For the same molecule, the GI50 [54] was > 100 µM (inactive).
